Measurements published in patent US7598258B2, “Quinoline derivatives and quinazoline derivatives inhibiting autophosphorylation of macrophage colony stimulating factor receptor” (Kirin Beer Kabushiki Kaisha, priority 2002, dated 2009).

Target: T1, Human KDR (Homo sapiens, UniProt P35968)
T1 construct: expressed in transfected cells; host or cells: NIH3T3 cells (mouse fibroblasts)
Assay: Inhibition of KDR phosphorylation in human KDR-transfected NIH3T3 cells (ELISA)
Assay type: cell-based
Details: for Selection ratio (KDR phosphorylation IC50 / c-fms phosphorylation IC50): class 0-3; for IC50: human KDR-transfected NIH3T3 cells, VEGF 100 ng/ml, ELISA, read-out: KDR phosphorylation 50% inhibitory concentration (IC50)
Experimental: Human KDR-transfected NIH3T3 cells (Sawano A et al., Cell Growth & Differentiation, 7, 213-221 (1996)) were cultured in a DMEM medium containing 10% fetal calf serum (purchased from GIBCO BRL) within a 5% carbon dioxide incubator until 50 to 70% confluent. The harvested cells were seeded into wells, containing the same medium, in a collagen type 1 coat 96-well flat-bottom plate in an amount of 1.5×10^4 per well, and cultured at 37° C. overnight. The medium was replaced with a 0.1% fetal calf serum-containing DMEM medium. The test compound dissolved in dimethyl sulfoxide was added to each well, and the cultivation was continued at 37° C. for additional one hr. A human recombinant vascular endothelial growth factor (hereinafter abbreviated to “VEGF”) was added to a final concentration of 100 ng/ml, followed by stimulation of cells at 37° C. for 2 min. The medium was removed, and the cells were washed with phosphate buffered saline (pH 7.4). A solubilization buffer (50 μl) (20 mM HEPES (pH 7.4), 150 mM NaCl, 0.2% Triton X-100, 10% glycerol, 5 mM sodium orthovanadylate, 5 mM disodium ethylenediaminetetraacetate, and 2 mM Na4P2O7) was then added thereto. The mixture was shaken at 4° C. for 2 hr to prepare a cell extract.
Separately, phosphate buffered saline (50 μl, pH 7.4) containing 5 μg/ml of anti-phospho-tyrosine antibody (PY20; purchased from Transduction Laboratories) was added to a microplate for ELISA (Maxisorp; purchased from NUNC), followed by standing at 4° C. overnight to be immobilized on the wells. After washing of the plate, 300 μl of a blocking solution was added, followed by standing at room temperature for 2 hr to perform blocking. After washing, the whole cell extract was transferred and was allowed to stand at 4° C. overnight. After washing, an anti-KDR antibody (purchased from Santa Cruz Biotechnology) was allowed to react at room temperature for one hr. Further, after washing, a peroxidase-labeled anti-rabbit Ig antibody (purchased from Amersham) was allowed to react at room temperature for one hr. After washing, a chromophoric substrate for peroxidase (purchased from Sumitomo Bakelite Co., Ltd.) was added thereto to initiate a reaction. After a suitable level of color development, a reaction termination solution was added to stop the reaction, and the absorbance at 450 nm was measured with a microplate reader. The KDR phosphorylation activity for each well was determined by presuming the absorbance without the addition of the test compound and with the addition of VEGF to be 100% KDR phosphorylation activity and the absorbance without the addition of the test compound and VEGF to be 0% KDR phosphorylation activity. The concentration of the test compound was varied on several levels, the KDR phosphorylation inhibitory rate was determined for each case, and the concentration of the test compound necessary for inhibiting 50% of KDR phosphorylation (IC50) was calculated.

T1 sequence (P35968 20-1356): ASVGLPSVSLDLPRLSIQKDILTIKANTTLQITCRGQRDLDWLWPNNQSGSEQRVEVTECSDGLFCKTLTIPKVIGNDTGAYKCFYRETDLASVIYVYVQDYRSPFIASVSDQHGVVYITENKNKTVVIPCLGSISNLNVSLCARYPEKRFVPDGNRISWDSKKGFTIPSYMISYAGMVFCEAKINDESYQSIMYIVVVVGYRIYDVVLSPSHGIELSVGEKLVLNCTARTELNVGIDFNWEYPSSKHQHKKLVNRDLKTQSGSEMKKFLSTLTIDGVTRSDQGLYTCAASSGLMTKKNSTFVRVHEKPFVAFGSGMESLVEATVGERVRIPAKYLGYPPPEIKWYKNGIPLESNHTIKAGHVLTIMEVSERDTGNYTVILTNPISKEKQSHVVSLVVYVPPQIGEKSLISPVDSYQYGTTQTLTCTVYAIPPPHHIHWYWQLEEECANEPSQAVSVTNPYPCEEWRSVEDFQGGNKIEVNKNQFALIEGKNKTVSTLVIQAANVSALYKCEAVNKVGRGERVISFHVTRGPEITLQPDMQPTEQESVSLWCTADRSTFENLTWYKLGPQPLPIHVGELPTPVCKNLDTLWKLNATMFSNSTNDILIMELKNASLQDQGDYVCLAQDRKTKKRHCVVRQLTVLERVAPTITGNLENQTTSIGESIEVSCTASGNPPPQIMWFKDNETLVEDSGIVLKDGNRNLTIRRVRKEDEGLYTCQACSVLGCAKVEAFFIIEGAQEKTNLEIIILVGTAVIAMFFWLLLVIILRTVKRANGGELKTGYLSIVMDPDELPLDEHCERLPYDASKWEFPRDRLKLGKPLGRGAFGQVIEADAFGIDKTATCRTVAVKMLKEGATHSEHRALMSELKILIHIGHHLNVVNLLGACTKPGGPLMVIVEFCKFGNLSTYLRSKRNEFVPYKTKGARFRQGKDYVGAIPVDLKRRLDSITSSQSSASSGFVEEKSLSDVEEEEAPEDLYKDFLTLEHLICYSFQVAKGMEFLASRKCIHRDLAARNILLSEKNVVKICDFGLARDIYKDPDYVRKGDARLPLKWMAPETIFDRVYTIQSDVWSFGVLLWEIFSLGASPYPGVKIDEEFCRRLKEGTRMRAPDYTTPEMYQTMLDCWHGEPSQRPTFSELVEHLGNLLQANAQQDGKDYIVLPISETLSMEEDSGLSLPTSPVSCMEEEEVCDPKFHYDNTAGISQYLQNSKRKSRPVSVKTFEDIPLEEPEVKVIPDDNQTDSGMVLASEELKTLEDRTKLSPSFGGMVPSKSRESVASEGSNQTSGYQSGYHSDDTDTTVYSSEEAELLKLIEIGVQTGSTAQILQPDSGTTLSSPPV

Question: `COc1cc2nccc(Oc3ccc(NC(=O)NC(C)c4ccc(F)cc4)cc3)c2cc1OC` (stereo not shown) [Example 1, N-{4-[(6,7-Dimethoxy-4-quinolyl)oxy]phenyl}-N′-[1-(4-fluorophenyl)ethyl]urea] was tested. Which “Selection ratio (KDR phosphorylation IC50 / c-fms phosphorylation IC50)” value did it give?
Answer: 0 (KDR phosphorylation 50% inhibitory concentration [μM]/c-fms phosphorylation 50% inhibitory concentration [μM] was less than 5)

Question: What about the IC50 of the same compound?
Answer: 1.1 nM

Question: Which “Selection ratio (KDR phosphorylation IC50 / c-fms phosphorylation IC50)” value does the source give for `COc1cc2nccc(Oc3ccc(NC(=O)NC(C)c4ccc(F)cc4)c(Cl)c3)c2cc1OC` (stereo not shown) [Example 4, N-{2-Chloro-4-[(6,7-dimethoxy-4-quinolyl)oxy]phenyl}-N′-[1-(4-fluorophenyl)ethyl]urea] here?
Answer: 0 (KDR phosphorylation 50% inhibitory concentration [μM]/c-fms phosphorylation 50% inhibitory concentration [μM] was less than 5)

Question: And the IC50?
Answer: 1 nM

Question: Which “Selection ratio (KDR phosphorylation IC50 / c-fms phosphorylation IC50)” value does the source give for `COc1cc2nccc(Oc3ccc(NC(=O)N[C@@H](C)c4ccc(F)cc4)c(Cl)c3)c2cc1OC` [Example 5, N-{2-Chloro-4-[(6,7-dimethoxy-4-quinolyl)oxy]phenyl}-N′-[(1S)-1-(4-fluorophenyl)ethyl]urea] here?
Answer: 1 (when the value was 5 or more)

Question: And the IC50?
Answer: 21.4 nM

Question: What does the source list for `COc1cc2nccc(Oc3ccc(NC(=O)N[C@H](C)c4ccc(F)cc4)c(Cl)c3)c2cc1OC` [Example 6, N-{2-Chloro-4-[(6,7-dimethoxy-4-quinolyl)oxy]phenyl}-N′-[(1R)-1-(4-fluorophenyl)ethyl]urea]?
Answer: Selection ratio (KDR phosphorylation IC50 / c-fms phosphorylation IC50): 0 (KDR phosphorylation 50% inhibitory concentration [μM]/c-fms phosphorylation 50% inhibitory concentration [μM] was less than 5); IC50: 1.8 nM

Question: `COc1cc2nccc(Oc3cc(C)c(NC(=O)NC(C)c4ccc(F)cc4)cc3C)c2cc1OC` (stereo not shown) [Example 7, N-{4-[(6,7-Dimethoxy-4-quinolyl)oxy]-2,5-dimethylphenyl}-N′-[1-(4-fluorophenyl)ethyl]urea] was tested. Which “Selection ratio (KDR phosphorylation IC50 / c-fms phosphorylation IC50)” value did it give?
Answer: 0 (KDR phosphorylation 50% inhibitory concentration [μM]/c-fms phosphorylation 50% inhibitory concentration [μM] was less than 5)

Question: What about the IC50 of the same compound?
Answer: 3.1 nM

Question: For `COc1cc2nccc(Oc3cc(C)c(NC(=O)N[C@@H](C)c4ccc(F)cc4)cc3C)c2cc1OC` [Example 8, N-{4-[(6,7-Dimethoxy-4-quinolyl)oxy]-2,5-dimethylphenyl}-N′-[(1S)-1-(4-fluorophenyl)ethyl]urea], which “Selection ratio (KDR phosphorylation IC50 / c-fms phosphorylation IC50)” value is on record?
Answer: 2 (when the value was 10 or more)

Question: And the IC50?
Answer: 390 nM

Question: Which “Selection ratio (KDR phosphorylation IC50 / c-fms phosphorylation IC50)” value does the source give for `COc1cc2nccc(Oc3cc(C)c(NC(=O)N[C@H](C)c4ccc(F)cc4)cc3C)c2cc1OC` [Example 9, N-{4-[(6,7-Dimethoxy-4-quinolyl)oxy]-2,5-dimethylphenyl}-N′-[(1R)-1-(4-fluorophenyl)ethyl]urea] here?
Answer: 0 (KDR phosphorylation 50% inhibitory concentration [μM]/c-fms phosphorylation 50% inhibitory concentration [μM] was less than 5)

Question: What about the IC50 of the same compound?
Answer: 2.7 nM

Question: Which “Selection ratio (KDR phosphorylation IC50 / c-fms phosphorylation IC50)” value does the source give for `COc1cc2nccc(Oc3ccc(NC(=O)NC(C)c4ccc(F)cc4)cc3Cl)c2cc1OC` (stereo not shown) [Example 10, N-{3-Chloro-4-[(6,7-dimethoxy-4-quinolyl)oxy]phenyl}-N′-[1-(4-fluorophenyl)ethyl]urea] here?
Answer: 0 (KDR phosphorylation 50% inhibitory concentration [μM]/c-fms phosphorylation 50% inhibitory concentration [μM] was less than 5)

Question: And the IC50?
Answer: 3 nM

Question: What does the source list for `COc1cc2nccc(Oc3ccc(NC(=O)N[C@@H](C)c4ccc(F)cc4)cc3Cl)c2cc1OC` [Example 11, N-{3-Chloro-4-[(6,7-dimethoxy-4-quinolyl)oxy]phenyl}-N′-[(1S)-1-(4-fluorophenyl)ethyl]urea]?
Answer: Selection ratio (KDR phosphorylation IC50 / c-fms phosphorylation IC50): 2 (when the value was 10 or more); IC50: 123 nM

Question: For `COc1cc2nccc(Oc3ccc(NC(=O)N[C@H](C)c4ccc(F)cc4)cc3Cl)c2cc1OC` [Example 12, N-{3-Chloro-4-[(6,7-dimethoxy-4-quinolyl)oxy]phenyl}-N′-[(1R)-1-(4-fluorophenyl)ethyl]urea], which “Selection ratio (KDR phosphorylation IC50 / c-fms phosphorylation IC50)” value is on record?
Answer: 0 (KDR phosphorylation 50% inhibitory concentration [μM]/c-fms phosphorylation 50% inhibitory concentration [μM] was less than 5)

Question: And the IC50?
Answer: 2.8 nM

Question: With `COc1cc2nccc(Oc3ccc(NC(=O)NC(C)c4ccc(F)cc4)c(C)c3)c2cc1OC` (stereo not shown) [Example 13, N-{4-[(6,7-Dimethoxy-4-quinolyl)oxy]-2-methylphenyl}-N′-[1-(4-fluorophenyl)ethyl]urea] as the compound, how does the “Selection ratio (KDR phosphorylation IC50 / c-fms phosphorylation IC50)” value read?
Answer: 0 (KDR phosphorylation 50% inhibitory concentration [μM]/c-fms phosphorylation 50% inhibitory concentration [μM] was less than 5)

Question: What about the IC50 of the same compound?
Answer: < 1 nM

Question: `COc1cc2nccc(Oc3ccc(NC(=O)N[C@@H](C)c4ccc(F)cc4)c(C)c3)c2cc1OC` [Example 14, N-{4-[(6,7-Dimethoxy-4-quinolyl)oxy]-2-methylphenyl}-N′-[(1S)-1-(4-fluorophenyl)ethyl]urea] was tested. Which “Selection ratio (KDR phosphorylation IC50 / c-fms phosphorylation IC50)” value did it give?
Answer: 1 (when the value was 5 or more)

Question: And the IC50?
Answer: 68.8 nM

Question: How did the “Selection ratio (KDR phosphorylation IC50 / c-fms phosphorylation IC50)” value turn out when `COc1cc2nccc(Oc3ccc(NC(=O)N[C@H](C)c4ccc(F)cc4)c(C)c3)c2cc1OC` [Example 15, N-{4-[(6,7-Dimethoxy-4-quinolyl)oxy]-2-methylphenyl}-N′-[(1R)-1-(4-fluorophenyl)ethyl]urea] was run?
Answer: 0 (KDR phosphorylation 50% inhibitory concentration [μM]/c-fms phosphorylation 50% inhibitory concentration [μM] was less than 5)

Question: And the IC50?
Answer: < 1 nM

Question: `COc1cc(Oc2ccnc3cc(OC)c(OC)cc23)ccc1NC(=O)NC(C)c1ccc(F)cc1` (stereo not shown) [Example 16, N-{4-[(6,7-Dimethoxy-4-quinolyl)oxy]-2-methoxyphenyl}-N′-[1-(4-fluorophenyl)ethyl]urea] was tested. Which “Selection ratio (KDR phosphorylation IC50 / c-fms phosphorylation IC50)” value did it give?
Answer: 0 (KDR phosphorylation 50% inhibitory concentration [μM]/c-fms phosphorylation 50% inhibitory concentration [μM] was less than 5)

Question: What about the IC50 of the same compound?
Answer: 3.1 nM

Question: Which “Selection ratio (KDR phosphorylation IC50 / c-fms phosphorylation IC50)” value does the source give for `COc1cc2nccc(Oc3ccc(NC(=O)NC(C)c4ccc(F)cc4)c(C(F)(F)F)c3)c2cc1OC` (stereo not shown) [Example 19, N-[4-[(6,7-Dimethoxy-4-quinolyl)oxy]-2-(trifluoromethyl)phenyl]-N′-[1-(4-fluorophenyl)ethyl]urea] here?
Answer: 0 (KDR phosphorylation 50% inhibitory concentration [μM]/c-fms phosphorylation 50% inhibitory concentration [μM] was less than 5)

Question: And the IC50?
Answer: 1.5 nM

Question: `COc1cc2nccc(Oc3ccc(NC(=O)N[C@@H](C)c4ccc(F)cc4)c(C(F)(F)F)c3)c2cc1OC` [Example 20, N-[4-[(6,7-Dimethoxy-4-quinolyl)oxy]-2-(trifluoromethyl)phenyl]-N′-[(1S)-1-(4-fluorophenyl)ethyl]urea] was tested. Which “Selection ratio (KDR phosphorylation IC50 / c-fms phosphorylation IC50)” value did it give?
Answer: 2 (when the value was 10 or more)

Question: What about the IC50 of the same compound?
Answer: 146 nM

Question: `COc1cc2nccc(Oc3ccc(NC(=O)N[C@H](C)c4ccc(F)cc4)c(C(F)(F)F)c3)c2cc1OC` [Example 21, N-[4-[(6,7-Dimethoxy-4-quinolyl)oxy]-2-(trifluoromethyl)phenyl]-N′-[(1R)-1-(4-fluorophenyl)ethyl]urea] was tested. Which “Selection ratio (KDR phosphorylation IC50 / c-fms phosphorylation IC50)” value did it give?
Answer: 0 (KDR phosphorylation 50% inhibitory concentration [μM]/c-fms phosphorylation 50% inhibitory concentration [μM] was less than 5)

Question: What about the IC50 of the same compound?
Answer: 2.1 nM

Question: Which “Selection ratio (KDR phosphorylation IC50 / c-fms phosphorylation IC50)” value does the source give for `COc1cc2nccc(Oc3ccc(NC(=O)NC(C)c4ccc(F)cc4)cc3OC)c2cc1OC` (stereo not shown) [Example 22, N-{4-[(6,7-Dimethoxy-4-quinolyl)oxy]-3-methoxyphenyl}-N′-[1-(4-fluorophenyl)ethyl]urea] here?
Answer: 0 (KDR phosphorylation 50% inhibitory concentration [μM]/c-fms phosphorylation 50% inhibitory concentration [μM] was less than 5)

Question: What about the IC50 of the same compound?
Answer: 3.9 nM

Question: `COc1cc2nccc(Oc3ccc(NC(=O)N[C@@H](C)c4ccc(F)cc4)cc3OC)c2cc1OC` [Example 23, N-{4-[(6,7-Dimethoxy-4-quinolyl)oxy]-3-methoxyphenyl}-N′-[(1S)-1-(4-fluorophenyl)ethyl]urea] was tested. Which “Selection ratio (KDR phosphorylation IC50 / c-fms phosphorylation IC50)” value did it give?
Answer: 3 (when the value was 50 or more)

Question: And the IC50?
Answer: 600 nM

Question: How did the “Selection ratio (KDR phosphorylation IC50 / c-fms phosphorylation IC50)” value turn out when `COc1cc2nccc(Oc3ccc(NC(=O)N[C@H](C)c4ccc(F)cc4)cc3OC)c2cc1OC` [Example 24, N-{4-[(6,7-Dimethoxy-4-quinolyl)oxy]-3-methoxyphenyl}-N′-[(1R)-1-(4-fluorophenyl)ethyl]urea] was run?
Answer: 0 (KDR phosphorylation 50% inhibitory concentration [μM]/c-fms phosphorylation 50% inhibitory concentration [μM] was less than 5)

Question: What about the IC50 of the same compound?
Answer: 2.4 nM
